Results as given in patent publication US20110165660A1, “ENGINEERED MICROORGANISMS WITH ENHANCED FERMENTATION ACTIVITY” (VERDEZYNE, INC., priority 2009, published 2011).
Where a chain is given by its changes, count along the chain named. Numbers in names are those of the source.

Columns and labels:
[1] = molecular target: S. cerevisiae ZWF1 (glucose-6-phosphate dehydrogenase) variant K46R (mutant 6) (Saccharomyces cerevisiae, UniProt P11412, K46R); experiment: Cofactor usage of ZWF1 mutants (initial kinetic screening, NAD+ vs NADP+); assay type: biochemical; conditions: preliminary cofactor phenotype
S. cerevisiae ZWF1 (glucose-6-phosphate dehydrogenase) variant K46R (mutant 6), sequence (P11412 whole entry K46R): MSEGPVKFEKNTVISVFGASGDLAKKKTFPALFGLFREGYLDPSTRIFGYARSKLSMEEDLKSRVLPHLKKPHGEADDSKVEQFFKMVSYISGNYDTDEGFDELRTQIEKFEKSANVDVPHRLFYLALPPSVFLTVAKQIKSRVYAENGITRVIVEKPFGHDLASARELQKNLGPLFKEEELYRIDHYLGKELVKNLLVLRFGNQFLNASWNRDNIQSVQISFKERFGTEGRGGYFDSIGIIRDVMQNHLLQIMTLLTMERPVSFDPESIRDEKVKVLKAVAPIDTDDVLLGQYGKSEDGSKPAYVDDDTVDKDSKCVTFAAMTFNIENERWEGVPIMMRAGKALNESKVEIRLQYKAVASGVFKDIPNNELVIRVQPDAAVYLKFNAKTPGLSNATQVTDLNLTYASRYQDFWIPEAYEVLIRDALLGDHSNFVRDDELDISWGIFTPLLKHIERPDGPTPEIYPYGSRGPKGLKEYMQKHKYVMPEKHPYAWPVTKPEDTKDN
Method: (§1) Strain BY4742 zwf1 (ATCC Cat. No. 4011971; Winzeler E A, et al. Science 285: 901-906, 1999. PubMed: 10436161) was used as the base strain for all ZWF1 assays. The assays were performed as follows: A 5 ml overnight of the strain expressing the ZWF1 gene was grown in SCD-ura. A 50 ml culture of the strain was then grown for about 18 hours from an initial OD600 of about 0.2 until it had reached about OD600 of about 4. The cells were centrifuged at 1046×g washed twice with 25 ml cold sterile water, and resuspended in 2 ml/g Yper Plus (Thermo Scientific) plus 1×protease inhibitors (EDTA-free). The cells were allowed to lyse at room temperature for about 30 minutes with constant rotation of the tubes. The lysate was centrifuged at 16,100×g for 10 minutes at 4° C. and the supernatants were transferred to a new 1.5 ml microcentrifuge tube. Quantification of the lysates was performed using the Coomassie-Plus kit (Thermo Scientific, San Diego, Calif.) as directed by the manufacturer.
(§2) The reaction was started with 20 mM glucose-6-phosphate and the reaction was monitored at A340. The specific activity was measured as the μmol substrate/min/mg protein.
(§3) Site directed mutagenesis reactions were performed in the same manner for all mutations, and for mutants which include more than one mutation, each mutation was performed sequentially. About 50 ng of plasmid DNA was added to 1×Pfu Ultra II buffer, 0.3 mM dNTPs, […] site directed mutagenesis specific primers, and 1 U Pfu Ultra II polymerase (Agilent, La Jolla, Calif.) in a 50 μl reaction mix. The reaction was cycled at 95° C. for 10 minutes, followed by 15 rounds of 95° C. for 15 seconds, 55° C. for 40 seconds, and 72° C. for 3 minutes. A final 10 minute extension reaction at 72° C. was also included. The PCR reaction mixture was then digested with 30 U of Dpnl for about 2 hours and 5 μl of the digested PCR reaction mixture was used to transform competent DH5α (Zymo Research, Orange, Calif.) and plated onto LB plates containing the appropriate antibiotics. The table below lists mutants generated in a first round of mutagenesis.

[2] = molecular target: S. cerevisiae ZWF1 (glucose-6-phosphate dehydrogenase) variant A51N (mutant 3) (Saccharomyces cerevisiae, UniProt P11412, A51N); experiment: as above; assay type: biochemical; conditions: preliminary cofactor phenotype
S. cerevisiae ZWF1 (glucose-6-phosphate dehydrogenase) variant A51N (mutant 3), sequence (P11412 whole entry A51N): as the sequence (P11412 whole entry K46R) above, with R46K, A51N counted along it
Method: as §1, §2, §3

[3] = molecular target: S. cerevisiae ZWF1 (glucose-6-phosphate dehydrogenase) variant F33Y (mutant 8) (Saccharomyces cerevisiae, UniProt P11412, F33Y); experiment: as above; assay type: biochemical; conditions: preliminary cofactor phenotype
S. cerevisiae ZWF1 (glucose-6-phosphate dehydrogenase) variant F33Y (mutant 8), sequence (P11412 whole entry F33Y): as the sequence (P11412 whole entry K46R) above, with F33Y, R46K counted along it
Method: as §1, §2, §3

[4] = molecular target: S. cerevisiae ZWF1 (glucose-6-phosphate dehydrogenase) variant T28F (mutant 5) (Saccharomyces cerevisiae, UniProt P11412, T28F); experiment: as above; assay type: biochemical; conditions: preliminary cofactor phenotype
S. cerevisiae ZWF1 (glucose-6-phosphate dehydrogenase) variant T28F (mutant 5), sequence (P11412 whole entry T28F): as the sequence (P11412 whole entry K46R) above, with T28F, R46K counted along it
Method: as §1, §2, §3

[5] = molecular target: S. cerevisiae ZWF1 (glucose-6-phosphate dehydrogenase) variant A24G/T28G (mutant 2) (Saccharomyces cerevisiae, UniProt P11412, A24G/T28G); experiment: as above; assay type: biochemical; conditions: preliminary cofactor phenotype
S. cerevisiae ZWF1 (glucose-6-phosphate dehydrogenase) variant A24G/T28G (mutant 2), sequence (P11412 whole entry A24G/T28G): as the sequence (P11412 whole entry K46R) above, with A24G, T28G, R46K counted along it
Method: as §1, §2, §3

[6] = molecular target: S. cerevisiae ZWF1 (glucose-6-phosphate dehydrogenase) variant A24G (mutant 1) (Saccharomyces cerevisiae, UniProt P11412, A24G); experiment: as above; assay type: biochemical; conditions: preliminary cofactor phenotype
S. cerevisiae ZWF1 (glucose-6-phosphate dehydrogenase) variant A24G (mutant 1), sequence (P11412 whole entry A24G): as the sequence (P11412 whole entry K46R) above, with A24G, R46K counted along it
Method: as §1, §2, §3

[7] = molecular target: S. cerevisiae ZWF1 (glucose-6-phosphate dehydrogenase) variant Y40L (mutant 7) (Saccharomyces cerevisiae, UniProt P11412, Y40L); experiment: as above; assay type: biochemical; conditions: preliminary cofactor phenotype
S. cerevisiae ZWF1 (glucose-6-phosphate dehydrogenase) variant Y40L (mutant 7), sequence (P11412 whole entry Y40L): as the sequence (P11412 whole entry K46R) above, with Y40L, R46K counted along it
Method: as §1, §2, §3

[8] = molecular target: S. cerevisiae ZWF1 variant A51D (mutant 4) (Saccharomyces cerevisiae, UniProt P11412, A51D); experiment: Cofactor preference of ZWF1 mutants (NAD+ vs NADP+); assay type: biochemical; conditions: initial kinetic screening, preliminary cofactor phenotype
S. cerevisiae ZWF1 variant A51D (mutant 4), sequence (P11412 whole entry A51D): as the sequence (P11412 whole entry K46R) above, with R46K, A51D counted along it
Method: as §1, §2
Site-directed mutagenesis was used to alter of ZWF1 so that the altered ZWF1 could also utilize NAD+, thereby improving the REDOX balance within the cell. […]

[9] = substrate: OC1OC[C@@H](O)[C@H](O)[C@H]1O; experiment: purified protein, by the assay type; assay type: biochemical, Ruminococcus flavefaciens / Piromyces; conditions: other: xylose 40-500 mM, pH 7.5, about 30° C.
Source text: To generate the chimeric XI-Rp10 gene, the 5′ primer KAS/XI-R-P6-10 and 3′ primer KAS/3-XI-RF-NATIVE were first used to add nucleotides 16-30 from the XI-P gene to the 5′ end of the XI-R gene keeping the remainder of the XI-R gene in-frame. […] Following PCR purification of the resulting XI-Rp6-10 amplified product, 5′ primer KAS/XI-R-P1-10 and either the 3′ primer KAS/3-XI-RF-NATIVE or the 3′ primer KAS/3-XI-RF-NATIVE-HIS oligonucleotides were used to add additional sequences.

[10] = substrate: OC1OC[C@@H](O)[C@H](O)[C@H]1O; experiment: purified protein, by the assay type; assay type: biochemical, Ruminococcus flavefaciens / Piromyces; conditions: other: xylose 40-500 mM, pH 7.5, about 30° C.; remark: listed apart in the source
Source text: Following PCR purification of the resulting XI-Rp6-15 amplified product, 5′ primer KAS/XI-R-P1-15 either 3′ primer KAS/3-XI-RF-NATIVE or 3′ primer KAS/3-XI-RF-NATIVE-HIS oligonucleotides were used to add additional sequences.

[11] = substrate: OC1OC[C@@H](O)[C@H](O)[C@H]1O; experiment: cells, lysate or membranes; assay type: biochemical, Ruminococcus flavefaciens; conditions: other: xylose about 40 to about 500 mM, pH 7.5, about 30° C.
Method: A series of specific point mutations were made to the “hot rod” Ruminococcus xylose isomerase gene using site-directed mutagenesis.
Site directed mutagenesis was performed as follows: About 50 ng of template DNA was added to 1×Pfu Ultra II buffer, 0.3 mM dNTPs, […] of the relevant mutagenesis primers depending on the mutant being constructed and 1 U Pfu Ultra 11 polymerase (Agilent, La Jolla, Calif.) in a 50 μl reaction mix. The “hot rod” Ruminococcus xylose isomerase gene was used as the template DNA for constructing single point mutation variants. Previously engineered mutants sometimes were used as “template” DNA to generate other mutants. Each reaction was PCR cycled as follows: 95° C. 10 minutes followed by 30 rounds of 95° C. for 20 seconds, 55° C. for 30 seconds, and 72° C. for 5 minutes. A final 5 minute extension reaction at 72° C. was also included. Following PCR, 1.5 μl of Dpnl (NEB, Ipswich, Mass.) was added and allowed to digest the reaction mixture for 1 to 1.5 hours at 37° C. 5 μl of this mixture was then used to transform NEB-5a cells (NEB, Ipswich, Mass.) and plated onto LB media with ampicillin (100 μg/ml). (Table below discloses SEQ ID NOS 229-256, respectively, in order of appearance)

[12] = substrate: OC1OC[C@@H](O)[C@H](O)[C@H]1O; experiment: purified protein, by the assay type; assay type: biochemical, Ruminococcus flavefaciens / Piromyces; conditions: other: xylose 40-500 mM, pH 7.5, about 30° C.; remark: listed apart in the source
Method: Approximately 20 μg of soluble whole cell extract from each transformed cell line was prepared using Y-PER plus reagent as described above was incubated in a solution containing about 100 mM Tris, pH 7.5, 10 mM MgCl2, 0.15 mM NADH (Sigma, St. Louis, Mo.), and 2 U sorbitol dehydrogenase (SDH) (Roche, Indianapolis, Ind.) at about 30° C. […] A Beckman DU-800 spectrophotometer was utilized with an Enzyme Mechanism software package (Beckman Coulter, Inc, Brea, Calif.), and the change in the A340 was monitored for 2-3 minutes.

NC(=O)c1ccc[n+]([C@@H]2O[C@H](COP(=O)(O)OP(=O)(O)OC[C@H]3O[C@@H](n4cnc5c(N)ncnc54)[C@H](O)[C@@H]3O)[C@@H](O)[C@H]2O)c1 [NAD+]
NAD+ usage [1]: No
NAD+ usage [2]: No
NAD+ usage [3]: No
NAD+ usage [4]: No
NAD+ usage [5]: No
NAD+ usage [6]: No
NAD+ usage [7]: No
NAD+ usage [8]: Yes

NC(=O)c1ccc[n+]([C@@H]2O[C@H](COP(=O)(O)OP(=O)(O)OC[C@H]3O[C@@H](n4cnc5c(N)ncnc54)[C@H](OP(=O)(O)O)[C@@H]3O)[C@@H](O)[C@H]2O)c1 [NADP+]
NADP+ usage [1]: Yes
NADP+ usage [2]: Yes
NADP+ usage [3]: Yes
NADP+ usage [4]: Yes
NADP+ usage [5]: No
NADP+ usage [6]: Yes
NADP+ usage [7]: Yes
NADP+ usage [8]: No

B1: Ruminococcus flavefaciens xylose isomerase chimera XI-Rp10 (first 10 amino acids of Piromyces xylose isomerase), SEQ ID NO: 58 (Ruminococcus flavefaciens; … (protein)
chain: MAKEYFPQIQQYQGPKSTDPLSFKYYNPEEVINGKTMREHLKFALSWWHTMGGDGTDMFGCGTTDKTWGQSDPAARAKAKVDAAFEIMDKLSIDYYCFHDRDLSPEYGSLKATNDQLDIVTDYIKEKQGDKFKCLWGTAKCFDHPRFMHGAGTSPSADVFAFSAAQIKKALESTVKLGGNGYVFWGGREGYETLLNTNMGLELDNMARLMKMAVEYGRSIGFKGDFYIEPKPKEPTKHQYDFDTATVLGFLRKYGLDKDFKMNIEANHATLAQHTFQHELRVARDNGVFGSIDANQGDVLLGWDTDQFPTNIYDTTMCMYEVIKAGGFTNGGLNFDAKARRGSFTPEDIFYSYIAGMDAFALGFRAALKLIEDGRIDKFVADRYASWNTGIGADIIAGKADFASLEKYALEKGEVTASLSSGRQEMLESIVNNVLFSL
Km [9]: 75.8 mM

B2: Ruminococcus flavefaciens xylose isomerase chimera XI-Rp15 (first 15 amino acids of Piromyces xylose isomerase), SEQ ID NO: 60 (Ruminococcus flavefaciens; … (protein)
chain: B1 chain with Q11K, Y12I, Q13K, G14F, P15E
Km [10]: 49.3 mM

B3: Ruminococcus flavefaciens xylose isomerase (hot rod) variant G179A (Ruminococcus flavefaciens; G179A) (protein)
chain: B1 chain with A2E, K3F, E4F, Y5S, F6N, P7I, Q8G, I9K, Q10I, G179A
notes: expressed in S. cerevisiae, soluble extract
Km [11]: 83.82 mM

B4: Ruminococcus flavefaciens xylose isomerase chimera XI-Rp5 (first 5 amino acids of Piromyces xylose isomerase), SEQ ID NO: 56 (Ruminococcus flavefaciens; … (protein)
chain: MAKEYFSNIGKIQYQGPKSTDPLSFKYYNPEEVINGKTMREHLKFALSWWHTMGGDGTDMFGCGTTDKTWGQSDPAARAKAKVDAAFEIMDKLSIDYYCFHDRDLSPEYGSLKATNDQLDIVTDYIKEKQGDKFKCLWGTAKCFDHPRFMHGAGTSPSADVFAFSAAQIKKALESTVKLGGNGYVFWGGREGYETLLNTNMGLELDNMARLMKMAVEYGRSIGFKGDFYIEPKPKEPTKHQYDFDTATVLGFLRKYGLDKDFKMNIEANHATLAQHTFQHELRVARDNGVFGSIDANQGDVLLGWDTDQFPTNIYDTTMCMYEVIKAGGFTNGGLNFDAKARRGSFTPEDIFYSYIAGMDAFALGFRAALKLIEDGRIDKFVADRYASWNTGIGADIIAGKADFASLEKYALEKGEVTASLSSGRQEMLESIVNNVLFSL
notes: E2 XI (CAB76571.1; MAKEY) on Ruminococcus XI
Km [12]: 66.5 mM
